US20030109444A1, “Bone anti-resorptive compounds” (priority 2001, published 2003)
“Also recorded” adds a separate entry of the source.

System: osteoclast precursors (bone marrow macrophages)
Experiment: Osteoclast differentiation of bone marrow macrophage cultures monitored by TRAP activity
Format: cell-based
Conditions: cell cultures of osteoclast precursors (mouse BMMs) with M-CSF, increasing concentrations of peptide, FIG. 1
Method: The effect of a partial AA″ loop polypeptide of RANKL on TRAP activity. Wild type C3H/HENJ mice were purchased from Harlan Industries (Indianapolis, Ind.). In order to establish a cell culture of osteoclast precursors, bone marrow macrophages (BMMs) were isolated from whole bone marrow of four to six week old mice and incubated in tissue culture dishes at 37° C. in 5% CO2. After 24 hours in culture, the non-adherent cells were collected and layered on a Ficoll Hypaque gradient and the cells at the gradient interface were collected. Cells were replated at 65,000/cm^2 in α-minimal essential medium, supplemented with 10% heat inactivated fetal bovine serum, at 37° C. in 5% CO2 in the presence of recombinant mouse M-CSF (10 ng.ml). The cell cultures were then treated either with the increasing concentrations of polypeptide of SEQ ID NO 1 (subset of AA″ loop) or with a negative control scrambled peptide having the same molecular weight as the test compound. […] This phosphatase is an osteoclast specific enzyme and its activity corresponds with osteoclast differentiation. TRAP activity is measured by quantitating its ability to cleave a substrate in a color-producing reaction.

PSGSHKVTLSS [SEQ ID NO 1]
TRAP activity: decreases TRAP activity
inhibition of RANKL-induced osteoclast differentiation as monitored by TRAP (listed as test compound): competitively inhibits the ability of RANKL to induce osteoclast differentiation; also recorded: dose-dependent
